Assay results reported in PubChem BioAssay (NCI).
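Dose response: 5 concentrations. Exposure: 48 h. Format: 96-well plates. Endpoint: linear interpolation; highest concentration if not reached. GI50 = concentration required for 50% inhibition of growth. TGI is the concentration that stops growth completely.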

How the values were obtained:
Assay in all cases: NCI-60 cell line screen, 48 h
KM12 colon = system: KM12 colon
SK-MEL-28 melanoma = system: SK-MEL-28 melanoma
K-562 leukemia = system: K-562 leukemia
OVCAR-8 ovarian = system: OVCAR-8 ovarian
HCT-15 colon = system: HCT-15 colon
NCI/ADR-RES ovarian = system: NCI/ADR-RES ovarian
MDA-MB-231 breast = system: MDA-MB-231 breast
NCI-H226 lung = system: NCI-H226 lung
HL-60(TB) leukemia = system: HL-60(TB) leukemia
UO-31 renal = system: UO-31 renal
LOX IMVI melanoma = system: LOX IMVI melanoma
HCT-116 colon = system: HCT-116 colon
MDA-MB-435 = system: MDA-MB-435
MOLT-4 leukemia = system: MOLT-4 leukemia
NCI-H460 lung = system: NCI-H460 lung
HCC-2998 colon = system: HCC-2998 colon
BT-549 breast = system: BT-549 breast
A549 NSCLC = system: A549 NSCLC
RPMI-8226 leukemia = system: RPMI-8226 leukemia
HT29 colon = system: HT29 colon
SK-MEL-2 melanoma = system: SK-MEL-2 melanoma
PC-3 prostate = system: PC-3 prostate
IGROV1 ovarian = system: IGROV1 ovarian
CAKI-1 renal = system: CAKI-1 renal
SNB-19 CNS = system: SNB-19 CNS
CCRF-CEM leukemia = system: CCRF-CEM leukemia
HOP-92 NSCLC = system: HOP-92 NSCLC
UACC-62 melanoma = system: UACC-62 melanoma
HS 578T breast = system: HS 578T breast
SN12C renal = system: SN12C renal
COLO 205 colon = system: COLO 205 colon
UACC-257 melanoma = system: UACC-257 melanoma
SR leukemia = system: SR leukemia
MDA-N = system: MDA-N
ACHN renal = system: ACHN renal
M14 melanoma = system: M14 melanoma
EKVX NSCLC = system: EKVX NSCLC
OVCAR-4 ovarian = system: OVCAR-4 ovarian
SF-539 CNS = system: SF-539 CNS
NCI-H23 lung = system: NCI-H23 lung
SF-268 CNS = system: SF-268 CNS
U251 CNS = system: U251 CNS
NCI-H522 lung = system: NCI-H522 lung
MCF7 breast = system: MCF7 breast
TK-10 renal = system: TK-10 renal
A498 renal = system: A498 renal
SW-620 colon = system: SW-620 colon
MALME-3M melanoma = system: MALME-3M melanoma
786-0 renal = system: 786-0 renal
OVCAR-5 ovarian = system: OVCAR-5 ovarian
SK-MEL-5 melanoma = system: SK-MEL-5 melanoma
RXF 393 renal = system: RXF 393 renal
HOP-62 NSCLC = system: HOP-62 NSCLC
SK-OV-3 ovarian = system: SK-OV-3 ovarian
T-47D breast = system: T-47D breast
OVCAR-3 ovarian = system: OVCAR-3 ovarian
SNB-75 CNS = system: SNB-75 CNS
DU-145 prostate = system: DU-145 prostate
SF-295 CNS = system: SF-295 CNS

With `CC1CCCC(CC(=O)O)(CC(=O)O)C1` (stereo not given) as the compound, how does the TGI (KM12 colon) read?
Its TGI is over 100 µM.

And the TGI (SK-MEL-28 melanoma)?
The TGI was over 100 µM.

And the TGI (K-562 leukemia)?
The TGI was over 100 µM.

And the TGI (OVCAR-8 ovarian)?
Its TGI is over 100 µM.

What about the TGI (HCT-15 colon) of the same compound?
The TGI was over 100 µM.

And the TGI (NCI/ADR-RES ovarian)?
Its TGI is over 100 µM.

What about the TGI (MDA-MB-231 breast) of the same compound?
The TGI was over 100 µM.

What about the TGI (NCI-H226 lung) of the same compound?
Its TGI is over 100 µM.

And the TGI (HL-60(TB) leukemia)?
Its TGI is over 100 µM.

What about the TGI (UO-31 renal) of the same compound?
The TGI was over 100 µM.

And the TGI (LOX IMVI melanoma)?
The TGI was over 100 µM.

And the TGI (HCT-116 colon)?
The TGI was over 100 µM.

And the TGI (MDA-MB-435)?
The TGI was over 100 µM.

And the TGI (MOLT-4 leukemia)?
Its TGI is over 100 µM.

And the TGI (NCI-H460 lung)?
Its TGI is over 100 µM.

What about the TGI (HCC-2998 colon) of the same compound?
Its TGI is over 100 µM.

And the TGI (BT-549 breast)?
Its TGI is over 100 µM.

What about the TGI (A549 NSCLC) of the same compound?
Its TGI is over 100 µM.

And the TGI (RPMI-8226 leukemia)?
Its TGI is over 100 µM.

And the TGI (HT29 colon)?
Its TGI is over 100 µM.

What about the TGI (SK-MEL-2 melanoma) of the same compound?
Its TGI is over 100 µM.

And the TGI (PC-3 prostate)?
Its TGI is over 100 µM.

What about the TGI (IGROV1 ovarian) of the same compound?
The TGI was over 100 µM.

What about the TGI (CAKI-1 renal) of the same compound?
The TGI was over 100 µM.

And the TGI (SNB-19 CNS)?
Its TGI is over 100 µM.

What about the TGI (CCRF-CEM leukemia) of the same compound?
Its TGI is over 100 µM.

And the TGI (HOP-92 NSCLC)?
Its TGI is over 100 µM.

And the TGI (UACC-62 melanoma)?
The TGI was over 100 µM.

And the TGI (HS 578T breast)?
Its TGI is over 100 µM.

What about the TGI (SN12C renal) of the same compound?
The TGI was over 100 µM.

And the TGI (COLO 205 colon)?
Its TGI is over 100 µM.

And the TGI (UACC-257 melanoma)?
Its TGI is over 100 µM.

What about the TGI (SR leukemia) of the same compound?
Its TGI is over 100 µM.

What about the TGI (MDA-N) of the same compound?
The TGI was over 100 µM.

And the TGI (ACHN renal)?
Its TGI is over 100 µM.

What about the TGI (M14 melanoma) of the same compound?
The TGI was over 100 µM.

And the TGI (EKVX NSCLC)?
Its TGI is over 100 µM.

And the TGI (OVCAR-4 ovarian)?
The TGI was over 100 µM.

And the TGI (SF-539 CNS)?
Its TGI is over 100 µM.

And the TGI (NCI-H23 lung)?
Its TGI is over 100 µM.

And the TGI (SF-268 CNS)?
Its TGI is over 100 µM.

What about the TGI (U251 CNS) of the same compound?
Its TGI is over 100 µM.

And the TGI (NCI-H522 lung)?
The TGI was over 100 µM.

What about the TGI (MCF7 breast) of the same compound?
Its TGI is over 100 µM.

And the TGI (TK-10 renal)?
The TGI was over 100 µM.

What about the TGI (A498 renal) of the same compound?
Its TGI is over 100 µM.

And the TGI (SW-620 colon)?
The TGI was over 100 µM.

What about the TGI (MALME-3M melanoma) of the same compound?
The TGI was over 100 µM.

And the TGI (786-0 renal)?
Its TGI is over 100 µM.

And the TGI (OVCAR-5 ovarian)?
The TGI was over 100 µM.

And the TGI (SK-MEL-5 melanoma)?
Its TGI is over 100 µM.

What does the source list for `CC(C)(C[C@H]1CN(S(=O)(=O)c2cccc(C(F)(F)F)c2)c2cc(-c3cc(F)cc(OC(F)F)c3)ccc2O1)C(=O)O`?
GI50 (RXF 393 renal): 8.43 µM; TGI (RXF 393 renal): 24.2 µM; GI50 (KM12 colon): 4.38 µM; TGI (KM12 colon): 16.4 µM; GI50 (SK-MEL-28 melanoma): 10.9 µM; TGI (SK-MEL-28 melanoma): 24.4 µM; GI50 (HOP-62 NSCLC): 6.65 µM; TGI (HOP-62 NSCLC): 23.8 µM; GI50 (K-562 leukemia): 4.83 µM; TGI (K-562 leukemia): 30.3 µM; GI50 (SK-OV-3 ovarian): 13.2 µM; TGI (SK-OV-3 ovarian): 27.4 µM; GI50 (OVCAR-8 ovarian): 12.1 µM; TGI (OVCAR-8 ovarian): 35.5 µM; GI50 (HCT-15 colon): 4.19 µM; TGI (HCT-15 colon): 16.9 µM; GI50 (NCI/ADR-RES ovarian): 5.07 µM; TGI (NCI/ADR-RES ovarian): 30.9 µM; GI50 (MDA-MB-231 breast): 13.3 µM; TGI (MDA-MB-231 breast): 34 µM; GI50 (T-47D breast): 5.19 µM; TGI (T-47D breast): 29.2 µM; GI50 (NCI-H226 lung): 15.2 µM; TGI (NCI-H226 lung): 56 µM; GI50 (HL-60(TB) leukemia): 4.82 µM; TGI (HL-60(TB) leukemia): 24.8 µM; GI50 (UO-31 renal): 10.8 µM; TGI (UO-31 renal): 23.4 µM; GI50 (LOX IMVI melanoma): 6.54 µM; TGI (LOX IMVI melanoma): 22.5 µM; GI50 (HCT-116 colon): 4.01 µM; TGI (HCT-116 colon): 15.8 µM; GI50 (OVCAR-3 ovarian): 3.76 µM; TGI (OVCAR-3 ovarian): 14.1 µM; GI50 (SNB-75 CNS): 5.31 µM; TGI (SNB-75 CNS): 23.4 µM; GI50 (MDA-MB-435): 2440 nM; TGI (MDA-MB-435): 7.58 µM; GI50 (DU-145 prostate): 12.4 µM; TGI (DU-145 prostate): 25.3 µM; GI50 (MOLT-4 leukemia): 5.88 µM; TGI (MOLT-4 leukemia): 29.7 µM; GI50 (NCI-H460 lung): 4.1 µM; TGI (NCI-H460 lung): 16.3 µM; GI50 (HCC-2998 colon): 10.1 µM; TGI (HCC-2998 colon): 24.4 µM; GI50 (BT-549 breast): 5.9 µM; TGI (BT-549 breast): 22.3 µM; GI50 (A549 NSCLC): 4.85 µM; TGI (A549 NSCLC): 17.9 µM; GI50 (RPMI-8226 leukemia): 3.45 µM; TGI (RPMI-8226 leukemia): 17.6 µM; GI50 (HT29 colon): 4.01 µM; TGI (HT29 colon): 15.6 µM; GI50 (SK-MEL-2 melanoma): 4.8 µM; TGI (SK-MEL-2 melanoma): 18.2 µM; GI50 (PC-3 prostate): 5.04 µM; TGI (PC-3 prostate): 18.9 µM; GI50 (IGROV1 ovarian): 9.43 µM; TGI (IGROV1 ovarian): 27.6 µM; GI50 (CAKI-1 renal): 10.5 µM; TGI (CAKI-1 renal): 24.4 µM; GI50 (SNB-19 CNS): 5.92 µM; TGI (SNB-19 CNS): 20.7 µM; GI50 (CCRF-CEM leukemia): 4.72 µM; TGI (CCRF-CEM leukemia): 24.7 µM; GI50 (HOP-92 NSCLC): 3.1 µM; TGI (HOP-92 NSCLC): 16.8 µM; GI50 (HS 578T breast): 4.47 µM; TGI (HS 578T breast): 27.8 µM; GI50 (SN12C renal): 11.3 µM; TGI (SN12C renal): 28 µM; GI50 (COLO 205 colon): 11.3 µM; TGI (COLO 205 colon): 32.7 µM; GI50 (UACC-257 melanoma): 11.5 µM; TGI (UACC-257 melanoma): 27.3 µM; GI50 (SR leukemia): 3.29 µM; TGI (SR leukemia): 23.8 µM; GI50 (ACHN renal): 11.1 µM; TGI (ACHN renal): 23.1 µM; GI50 (M14 melanoma): 4.59 µM; TGI (M14 melanoma): 17.5 µM; GI50 (EKVX NSCLC): 5.25 µM; TGI (EKVX NSCLC): 19.3 µM; GI50 (OVCAR-4 ovarian): 13.2 µM; TGI (OVCAR-4 ovarian): 41.7 µM; GI50 (SF-539 CNS): 5.41 µM; TGI (SF-539 CNS): 19.1 µM; GI50 (NCI-H23 lung): 9.4 µM; TGI (NCI-H23 lung): 26.3 µM; GI50 (SF-268 CNS): 10.3 µM; TGI (SF-268 CNS): 24.7 µM; GI50 (U251 CNS): 4.51 µM; TGI (U251 CNS): 17.1 µM; GI50 (NCI-H522 lung): 2500 nM; TGI (NCI-H522 lung): 10.7 µM; GI50 (MCF7 breast): 3.98 µM; TGI (MCF7 breast): 22.4 µM; GI50 (TK-10 renal): 9.07 µM; TGI (TK-10 renal): 27.6 µM; GI50 (A498 renal): 4.5 µM; TGI (A498 renal): 16.9 µM; GI50 (SF-295 CNS): 4.12 µM; TGI (SF-295 CNS): 18.5 µM; GI50 (SW-620 colon): 5.02 µM; TGI (SW-620 colon): 21.5 µM; GI50 (MALME-3M melanoma): 10.2 µM; TGI (MALME-3M melanoma): 25.1 µM; GI50 (786-0 renal): 6.98 µM; TGI (786-0 renal): 20.7 µM; GI50 (OVCAR-5 ovarian): 12.6 µM; TGI (OVCAR-5 ovarian): 25.9 µM; GI50 (SK-MEL-5 melanoma): 3.56 µM; TGI (SK-MEL-5 melanoma): 14.9 µM
